Data published in patent publication US4833146A, “Tertiary hydroxyalkylxanthines, medicaments containing them and their use” (priority 1985, dated 1989).
Where two headings read alike, the source gives them in different places.

Legend:
ischemic skeletal muscle [1] = assay: Action on disturbed peripheral arterial circulation: pO2 in ischemic skeletal muscle, occlusion model on dogs; type: in vivo, male beagle dogs; parameters: key: W = % frequency of positive experiments × mean % pO2 increase; conditions: dog occlusion model
Method: The experimental animals used were male beagle dogs under sodium pentobarbital anesthesia (35 mg/kg intraperitoneally), on whose right hind extremity the femoral artery and a certain area of the lower leg muscle was exposed and on whose left hind extremity the femoral vein was exposed and a cannula inserted for infusion of the product and the femoral artery was exposed and a cannula inserted for blood pressure measurements. The animals were relaxed by administration of alcuronium chloride (0.1 mg/kg intravenously and then 0.05 mg/kg intraperitoneally every 30 minutes) and artificially ventilated in order on the one hand to avoid spontaneous contractions of the muscle with an adverse effect on the pO2 measurements and on the other hand to guarantee a uniform supply of respiratory oxygen. Another catheter inserted into the femoral vein of the right hind extremity was used to monitor the lactate concentration in the venous outflow. […]
In each experiment, the maximum percentage rise in the pO2 following administration of the substance during vascular occlusion was used as the measurement parameter for the action of the product (n=2-11). A dimensionless activity index W was calculated from three measurement values for each compound by obtaining the product of the percentage frequency of positive experiments and the average percentage increase in pO2 resulting from the positive individual values, this index both taking into account interindividual differences in the topology of the vascularization of the muscle and also recording responders and nonresponders to the test compounds and accordingly permitting a more reliable activity comparison amongst the individual products.

[2] = test system: regional cerebral circulation; assay: Action on regional cerebral circulation of anesthetized cats (heat conducting technique); type: in vivo, cats of both sexes; conditions: Felis catus, iv, 3 mg/kg i.v., read-out: Average increase in cerebral circulation as Δλ in %
Method: The percentage increase in the heat transport number λ after administration of the product is thus a measure of the improvement in circulation.
The compounds were administered intravenously in aqueous solution. The dose was 3 mg of test substance per kg of body weight. 3 to 5 individual experiments were carried out for each test product, and the average percentage increase in cerebral circulation was determined from the measurement data obtained.

in vivo = conditions: mouse, in vivo, single dose, 7 days, read-out: Toxicity LD50 (mouse)
Method: (§1) The LD50 ranges were determined by the standard method via the mortality which arose within 7 days in NMRI mice following a single intravenous (i.v.) or intraperitoneal (i.p.) dose (NMRI=Naval Medical Research Institute).

[3] = test system: ischemic skeletal muscle (tibialis anterior and extensor digitorum longus); assay: Chronic experiment on rats with unilateral occlusion of the iliac artery: metabolism in ischemic skeletal muscle (histochemical staining); type: in vivo
ischemic skeletal muscle [4] = assay: Chronic experiment: contractility of the ischemic skeletal muscle in rats with a ligated right femoral artery; type: in vivo; conditions: 25 mg/kg daily oral, 20 days
Method: The superiority of the xanthines of the formula I was also to be seen from another chronic experiment in which the influence on the contractility of the ischemic skeletal muscle in rats with a ligated right femoral artery was investigated. The animals received the particular test product in a daily oral dose of 25 mg/kg by a stomach tube for 20 days. Thereafter, the fatigability of the ischemic muscle on electrical stimulation with about 80 contractions per minute was determined via the decrease in contractile force after stimulation for 1, 15 and 45 minutes in comparison with untreated control animals. […] This improvement was accompanied by an increase in the mitochondrial respiratory control rate (RCR). […] The compounds according to the invention are accordingly also suitable for the treatment of muscular energy metabolism disorders of various causes, particularly mitochondrial myopathy.

[5] = test system: isolated perfused rabbit ear; assay: Inhibiting effect on vascular contraction induced with norfenefrine on the isolated perfused rabbit ear
Text: It is today generally recognized that exclusively vasodilating drugs or agents with a very potent vasodilating action component are unsuitable for the treatment of disturbances in the microcirculation because, on the one hand, the physiological vasodilatory reserve as a rule is already completely exhausted, and on the other hand there is the risk of a steal phenomenon, which means a harmful redistribution of the nutritive blood flow in the microcirculation at the expense of the already undersupplied diseased tissue. The inhibiting effect on vascular contraction induced with norfenefrine on the isolated perfused rabbit ear was therefore investigated.

NMRI mice = assay: in vivo; conditions: single dose, 7 days, Table 3
Method: as §1

[6] = animals and humans, cited from earlier work; for "liver first-pass" effect: especially on oral administration; for biotransformation: enzymatic oxidation of the oxo- or hydroxyhexyl side chain

| SMILES | Activity index W (ischemic skeletal muscle [1]; i.d. 25 mg/kg) | Activity index W (ischemic skeletal muscle [1]; i.v. 0.6 mg/kg/min) | change in vivo at 3 mg/kg [2] | further results |
| --- | --- | --- | --- | --- |
| CCn1c(=O)n(CCCCC(C)(C)O)c(=O)c2c1ncn2CCOC [Example 37] | 950 | 1400 | – | – |
| CCCn1cnc2c1c(=O)n(CCCCC(C)(C)O)c(=O)n2C [Example 9, 1-(5-Hydroxy-5-methylhexyl)-3-methyl-7-propylxanthine] | – | – | 9.4% | LD50 at 168 h (in vivo; iv, Table 3): 100 to 200 mg/kg |
| CCC(C)(O)CCCCn1c(=O)c2c(ncn2C)n(C)c1=O (stereo not shown) [Example 10, 1-(5-Hydroxy-5-methylheptyl)-3,7-dimethylxantine] | 1965 | – | – | – |
| CCCn1cnc2c1c(=O)n(CCCC(C)(C)O)c(=O)n2CC [Example 22] | – | – | 12% | LD50 at 168 h (in vivo; iv, Table 3): > 200 mg/kg |
| CCOCCOCCn1cnc2c1c(=O)n(CCCCC(C)(C)O)c(=O)n2CC [Example 48] | – | – | 14.6% | LD50 at 168 h (in vivo; iv, Table 3): > 200 mg/kg |
| CCOCn1cnc2c1c(=O)n(CCCCC(C)(C)O)c(=O)n2C [Example 5, 7-Ethoxymethyl-1-(5-hydroxy-5-methylhexyl)-3-methylxanthine] | 2909 | – | – | proportion of oxidative fibers in the two muscles of the ischemic extremity ([3]; 3 mg/kg intraperitoneally three times daily, 5 weeks): increased significantly; mitochondrial respiratory control rate (RCR) (ischemic skeletal muscle [4]): increase; contractility values reached in the ischemic muscle (ischemic skeletal muscle [4]; compared with healthy muscle of untreated animals): normal contractility values like those in the left healthy (non-ischemic) muscle of untreated animals being reached; muscular performance in the ischemic extremity (ischemic skeletal muscle [4]; electrical stimulation for 1, 15 and 45 minutes): significant improvement; inhibition of the norfenefrine action ([5]; up to a concentration of 100 μg/ml): no inhibition; LD50 at 168 h (in vivo; ip, Table 2): 300 to 600 mg/kg; LD50 at 168 h (in vivo; iv, Table 2): 150 to 300 mg/kg; Activity index W (ischemic skeletal muscle [1]; i.v. 0.3 mg/kg/min): 2080 |
| COCn1cnc2c1c(=O)n(CCC(C)(C)O)c(=O)n2C [Example 32] | 566 | 2650 | – | – |
| CCCn1cnc2c1c(=O)n(CCCCCC(C)(C)O)c(=O)n2C [Example 16] | – | 999 | 25.8% | Toxicity LD50 (mouse) (NMRI mice; i.p.): 150 to 300 mg/kg; LD50 at 168 h (in vivo; ip, Table 2): 150 to 300 mg/kg |
| CCn1c(=O)n(CCCCC(C)(C)O)c(=O)c2c1ncn2CCCOC [Example 43] | – | – | 19.8% | LD50 at 168 h (in vivo; iv, Table 3): > 200 mg/kg |
| CC(O)Cn1cnc2c1c(=O)n(CCCCC(C)(C)O)c(=O)n2C (stereo not shown) [Example 8, 1-(5-Hydroxy-5-methylhexyl)-7-(2-hydroxypropyl)-3-methylxanthine] | – | 1400 | – | – |
| Cn1cnc2c1c(=O)n(CCCCC(C)(C)O)c(=O)n2C [Example 14, 1-(5-Hydroxy-5-methylhexyl)-3,7-dimethylxanthine] | – | 960 | – | – |
| Cn1c(=O)n(CCCCC(C)(C)O)c(=O)c2c1ncn2CCCO [Example 50] | 733 | 2631 | – | – |
| COCn1cnc2c1c(=O)n(CCCCCC(C)(C)O)c(=O)n2C [Example 27] | – | – | 10.3% | LD50 at 168 h (in vivo; iv, Table 3): > 200 mg/kg |
| COCCOCn1cnc2c1c(=O)n(CCCCC(C)(C)O)c(=O)n2C [Example 44] | – | 1199 | – | – |
| CCCn1cnc2c1c(=O)n(CCCCC(C)(C)O)c(=O)n2CC [Example 18] | – | 1578 | 9.4% | Toxicity LD50 (mouse) (NMRI mice; i.v.): 100 to 200 mg/kg; LD50 at 168 h (in vivo; iv, Table 2): 100 to 200 mg/kg |
| CC(O)CCCCn1c(=O)c2c(ncn2C)n(C)c1=O (stereo not shown) [1-(5-hydroxyhexyl)-3,7-dimethylxanthine] | – | – | – | "liver first-pass" effect [6]: pronounced; biotransformation [6]: rapid and complete |
| CCn1c(=O)n(CCCCC(C)(C)O)c(=O)c2c1ncn2C [Example 17] | – | 1525 | 9.4% | LD50 at 168 h (in vivo; iv, Table 3): > 200 mg/kg |
| CCCn1c(=O)c2c(ncn2CCCCC(C)(C)O)n(C)c1=O [Example 3, 7-(5-Hydroxy-5-methylhexyl)-3-methyl-1-propylxanthine] | 1250 | 1650 | 15.5% | Toxicity LD50 (mouse) (NMRI mice; i.v.): 100 to 200 mg/kg; LD50 at 168 h (in vivo; iv, Table 2): 100 to 200 mg/kg |
| Cn1c(=O)n(CCCCC(C)(C)O)c(=O)c2[nH]cnc21 [Example 6, 1-(5-Hydroxy-5-methylhexyl)-3-methylxanthine] | 700 | – | – | – |
| COCn1cnc2c1c(=O)n(CCCCC(C)(C)O)c(=O)n2C [Example 28] | 2100 | – | – | – |
| CCCn1cnc2c1c(=O)n(CCCC(C)(C)O)c(=O)n2C [Example 12, 1-(4-Hydroxy-4-methylpentyl)-3-methyl-7-propylxanthine] | 2337 | 866 | – | – |
| CC(=O)CCCCn1c(=O)c2c(ncn2C)n(C)c1=O [Pentoxifylline, 3,7-dimethyl-1-(5-oxohexyl)-xanthine, reference compound] | – | – | 8.6% | influence on muscular metabolism in the ischemic skeletal muscle ([3]; chronic experiment, iliac artery occlusion): no direct influence; action in these experiments (ischemic muscle contractility) (ischemic skeletal muscle [4]): no action; dilating effect on the norfenefrine-contracted vessels ([5]; concentration range from 10 to 100 μg/ml): dose-dependent dilating effect; "liver first-pass" effect [6]: pronounced; biotransformation [6]: rapid and complete |
| Cn1c(=O)c2c(ncn2CCCCC(C)(C)O)n(C)c1=O [Example 4, 7-(5-Hydroxy-5-methylhexyl)-1,3-dimethylxanthine] | – | 1300 | – | LD50 at 168 h (in vivo; iv, Table 2): 100 to 200 mg/kg |
| CCOCCn1cnc2c1c(=O)n(CCCCC(C)(C)O)c(=O)n2C [Example 39] | 1996 | 1567 | – | – |
